Test results as given in patent publication US20220233492A1, “METHOD OF PREVENTING OR TREATING POSTOPERATIVE PAIN” (priority 2019, published 2022).
“Also recorded” adds a separate entry of the source.

Key:
[1] = test system: postoperative pain, subjects for an elective bunionectomy; test: Example 3: IV infusion after nerve block removal vs placebo, elective bunionectomy; type: in vivo, human
Method: The primary-outcome measure, pain intensity, was evaluated using NRS (0-10) at the scheduled time points through 48 hours post-emergence. […] Subjects were given 2 stopwatches to start at the time of the start of the study drug infusion (T=0) and were instructed to stop the first stopwatch when “perceptible pain relief”, and the second stopwatch when “meaningful pain relief” is felt by the Time 12 hr.

[2] = test system: postoperative pain, subjects underwent laparoscopic colorectal surgery; test: Example 1: postoperative IV infusion vs placebo after laparoscopic colorectal surgery; type: in vivo, human
Method: Subjects who reported a pain intensity score of at least 4 on the NRS (0-10) after regaining consciousness in the post-anesthesia care unit (PACU) were enrolled in the study. The VVZ-149 group received an 8-hours IV infusion at a loading dose of 1.8 mg/kg for 0.5 h followed by a maintenance dose of 1.3 mg/kg/h for 7.5 h, and the placebo group received a placebo with the same dosing regimen. […] The primary-outcome measure, pain intensity, was evaluated using NRS (0-10) at the scheduled time points through 24 hours post-emergence. […] In rescued patients, anxiety was also highly correlated with both depression (r=0.285, p=0.041) and PCS score (r=0.334, p=0.016).

[3] = test system: healthy human subjects or subjects undergoing major surgeries; test: safety in healthy human subjects or subjects undergoing major surgeries; type: in vivo
[4] = double-blinded, randomized preclinical studies with PK/PD correlation analyses; type: in vivo
[5] = test system: postoperative pain, subjects underwent laparoscopic or robotic-assisted gastrectomy; test: Example 4: intraoperative start IV infusion vs placebo, laparoscopic or robotic-assisted gastrectomy; type: in vivo, human; settings: for reduction of total amount of opioid consumed vs placebo: p<0.05
[6] = test system: postoperative pain, subjects for an open elective abdominoplasty; test: Example 2: IV infusion started before anesthesia induction vs placebo, open elective abdominoplasty; type: in vivo, human

## CCCCOc1c(OC)cc(C(=O)NCC2(N(C)C)CCOCC2)cc1OC [VVZ-149, 4-butoxy-N-((4-(dimethylamino)tetrahydro-2H-pyran-4-yl)methyl)-3,5-dimethoxybenzamide]
[1]; 10-hours IV infusion 160 mg 0.5 h + 840 mg 9.5 h after nerve block removal, FIG. 16a
  pain intensity (NRS 0-10) vs placebo: lower pain intensity
[1]; IV morphine rescue, all patients
  opioid consumption vs placebo: less opioid consumption
[1]; subgroup predose PI≥7, FIG. 17a, 17b
  morphine requested and consumed vs placebo subgroup: significant less morphine was requested and consumed
[1]; subgroup with severe postoperative pain, predose PI≥7, FIG. 16b
  pain intensity vs placebo subgroup: significant lower pain intensity
[1]; within 30 minutes after the start of infusion, FIG. 18
  patients reporting perceptible pain relief: More than 50%
[2]; 8-hours IV infusion 1.8 mg/kg 0.5 h + 1.3 mg/kg/h […], through 24 hours post-emergence, FIG. 1
  pain intensity (NRS 0-10) vs placebo: lower pain intensity
[2]; all patients, FIG. 2
  opioid consumption (hydromorphone via PCA and rescue) vs placebo: significant less opioid consumption
[2]; hydromorphone PCA, FIG. 3 and FIG. 4
  number of PCA demands vs placebo: significantly reduced the patients' need for postoperative analgesia; also recorded: significantly lower
[2]; subgroup of rescued patients (rescue hydromorphone in first 2 hours post-emergence), FIG. 7
  pain intensity vs placebo subgroup: reduced pain intensity
[2]; subgroup of rescued patients, FIG. 7
  decrease in hydromorphone use compared to placebo: 40%
[2]; subgroup with severe postoperative pain (predose PI 7), FIG. 5a
  pain intensity vs placebo subgroup: significant lower pain intensity
[2]; subgroup with severe postoperative pain (predose PI 7), FIG. 5b
  hydromorphone (via PCA and/or rescue) requested and consumed vs placebo subgroup: less hydromorphone (via PCA and/or rescue) was requested and consumed
[3]
  clinically significant adverse events (AEs): No clinically significant adverse events
[4]
  pain relief: dose-dependent pain relief
  sedative or adverse effects: without significant sedative or adverse effects
[4]; versus morphine or gabapentin
  anti-allodynic effect: comparable to morphine or gabapentin
[5]; 10 h IV infusion 1.8 mg/kg 0.5 h + 1.3 mg/kg/hr 9.5 h, significance at T=4 (p<0.05), FIG. 12
  mean NRS rest vs placebo: lower at any given timepoint through 24 hrs post-emergence except at T=24
[5]; for 10 hours post-emergence, p<0.01, FIG. 14
  opioid sparing (opioid consumed vs placebo): 31.8%
[5]; in vivo
  number of PCA demand vs placebo: significantly lessened at T=2 and T=10
[5]; rescued patient group, 0-10 hr post-emergence
  reduction of total amount of opioid consumed vs placebo: 31.4%
[5]; rescued patient group, 10-24 hr post-emergence
  reduction of total amount of opioid consumed vs placebo: 35%
[5]; rescued patient group, significance at 4 hr (p<0.01) and 10 hr post-emergence (p<0.05), FIG. 15b
  pain intensity (PIs) vs placebo: much lower
[6]; 0-6, 0-12, 0-24 hours, FIG. 9
  total amount of rescue opioid consumed vs placebo: significant lower
[6]; 10-hours IV infusion 160 mg 0.5 h + 840 mg 9.5 h, starting approx. 30 minutes before induction of anesthesia
  reduction of postoperative pain: opioid comparable reduction of postoperative pain
[6]; IV morphine rescue, 0-24 hours, FIG. 8
  number of requests for rescue opioid vs placebo: significant lower
[6]; during the first 12 hours post-emergence, FIG. 10
  proportion of opioid-free subjects vs placebo: higher proportion of subjects that are opioid-free
